Test results: patent US9597342B2 (UWM Research Foundation, Inc., priority 2011, dated 2017)

Experiments:
[1] = In vitro metabolic stability using human liver microsomes
Experimental: The metabolic stability of 15 GABAA receptor ligands using human liver microsomes was studied. The test articles were incubated at two concentrations (1 and 10 μM) and aliquots (100 μl) were removed at various time points (0, 15, 30 and 60 minutes), and analyzed by LC-MS/MS.
(§1) The test articles were incubated at two concentrations (1 and 10 μM) in 96-well plate format with active or heat-inactivated human liver microsomes and cofactors. Aliquots were removed at 0, 15, 30 and 60 minutes and mixed with acetonitrile containing internal standard for analysis. Samples were extracted and assayed using a liquid chromatography/tandem mass spectrometry (LC-MS/MS) analytical method.
Pooled human liver microsomes (Lot #38289, pool of 150 different male and female donor livers) were obtained from BD Biosciences Corporation (Woburn, Mass.). Microsomes were stored at ˜−135° C. until use.
(§2) The test articles (1 and 10 μM) were incubated with human liver microsomes (0.5 mg protein/ml) and appropriate cofactors (2.5 mM NADPH and 3.3 mM magnesium chloride) in 100 mM phosphate buffer, pH 7.4 (0.1% final DMSO), in a 37° C. water bath. Incubations with all compounds were initiated with the addition of microsomes. At selected time points (0, 15, 30 and 60 min), a single 100 μl aliquot was removed from each sample and mixed with 200 μl of chilled acetonitrile containing internal standard. Following brief vortexing and centrifugation, the samples were further diluted into a 96-well plate for subsequent LC-MS/MS analysis. All samples were assayed in duplicate.
(§3) Experimental controls consisted of: a) incubation of all components except test article for 0 and 60 min, b) incubation of midazolam (positive control) at 10 μM for 0, 15, 30 and 60 min, and c) incubation of 1 and 10 μM test article and 10 μM midazolam with heat-inactivated microsomes (0.5 mg protein/ml) for 0 and 60 min. All controls were assayed in duplicate.
Samples were analyzed by LC-MS/MS in multiple reaction monitoring mode using positive-ion electrospray ionization. The details of the LC-MS/MS method can be provided upon request.
(§4) Data from the metabolic stability assays were transferred to and processed in a Microsoft Excel spreadsheet. To determine metabolic stability, the percent remaining at each time point was calculated by dividing the peak area ratio of test article/internal standard at each time point by the peak area ratio at 0 min multiplied by 100.

[2] = Incubation with heat-inactivated human liver microsomes (stability control); conditions: 60 min
Experimental: as §1, §2, §3, §4

GABAA/α2 = biological target: T1, GABAA/α2 (Homo sapiens, UniProt P18507+P47869); conditions: intermediate affinity; Huang et al., J. Med. Chem. 2000; cited from earlier work
T1 sequence (P47869 29-451): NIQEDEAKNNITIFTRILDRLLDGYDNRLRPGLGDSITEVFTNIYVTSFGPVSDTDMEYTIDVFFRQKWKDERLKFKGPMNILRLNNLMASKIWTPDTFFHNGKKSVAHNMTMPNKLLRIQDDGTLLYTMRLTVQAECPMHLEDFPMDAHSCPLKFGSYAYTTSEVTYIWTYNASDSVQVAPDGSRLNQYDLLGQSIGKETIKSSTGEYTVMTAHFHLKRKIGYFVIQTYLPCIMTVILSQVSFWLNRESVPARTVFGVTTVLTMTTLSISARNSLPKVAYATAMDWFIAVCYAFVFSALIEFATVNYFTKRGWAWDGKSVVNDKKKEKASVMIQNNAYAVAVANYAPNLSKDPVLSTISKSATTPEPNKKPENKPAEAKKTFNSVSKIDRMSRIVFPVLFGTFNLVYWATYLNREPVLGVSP
T1 sequence (P18507 40-467 limits assumed): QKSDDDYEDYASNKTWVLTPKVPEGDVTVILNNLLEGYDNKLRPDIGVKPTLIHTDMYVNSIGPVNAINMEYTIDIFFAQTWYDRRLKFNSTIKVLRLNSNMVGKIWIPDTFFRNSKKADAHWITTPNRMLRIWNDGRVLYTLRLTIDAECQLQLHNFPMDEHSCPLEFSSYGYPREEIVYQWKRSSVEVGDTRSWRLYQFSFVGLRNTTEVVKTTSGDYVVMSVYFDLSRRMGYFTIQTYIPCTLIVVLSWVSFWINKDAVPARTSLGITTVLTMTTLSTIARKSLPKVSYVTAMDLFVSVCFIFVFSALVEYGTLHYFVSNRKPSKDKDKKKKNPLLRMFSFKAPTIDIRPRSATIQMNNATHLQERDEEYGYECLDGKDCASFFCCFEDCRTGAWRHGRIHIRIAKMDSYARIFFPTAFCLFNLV
T1 sequence (P28472 26-473 partner): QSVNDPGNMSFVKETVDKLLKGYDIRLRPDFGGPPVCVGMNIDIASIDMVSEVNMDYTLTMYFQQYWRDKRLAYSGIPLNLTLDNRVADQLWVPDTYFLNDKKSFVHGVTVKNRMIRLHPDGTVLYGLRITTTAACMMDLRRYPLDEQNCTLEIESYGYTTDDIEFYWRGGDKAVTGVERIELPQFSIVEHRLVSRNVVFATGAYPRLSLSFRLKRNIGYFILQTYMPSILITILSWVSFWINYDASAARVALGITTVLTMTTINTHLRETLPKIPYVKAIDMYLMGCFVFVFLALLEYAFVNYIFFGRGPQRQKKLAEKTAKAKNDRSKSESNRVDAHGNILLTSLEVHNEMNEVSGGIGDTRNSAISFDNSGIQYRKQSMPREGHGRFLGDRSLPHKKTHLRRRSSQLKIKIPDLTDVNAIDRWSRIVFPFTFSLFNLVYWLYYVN

GABAA/α5 receptors = biological target: T2, GABAA/α5 receptors (Homo sapiens, UniProt P18507+P31644); conditions: high affinity; Huang et al., J. Med. Chem. 2000; cited from earlier work
T2 sequence (P31644 32-462): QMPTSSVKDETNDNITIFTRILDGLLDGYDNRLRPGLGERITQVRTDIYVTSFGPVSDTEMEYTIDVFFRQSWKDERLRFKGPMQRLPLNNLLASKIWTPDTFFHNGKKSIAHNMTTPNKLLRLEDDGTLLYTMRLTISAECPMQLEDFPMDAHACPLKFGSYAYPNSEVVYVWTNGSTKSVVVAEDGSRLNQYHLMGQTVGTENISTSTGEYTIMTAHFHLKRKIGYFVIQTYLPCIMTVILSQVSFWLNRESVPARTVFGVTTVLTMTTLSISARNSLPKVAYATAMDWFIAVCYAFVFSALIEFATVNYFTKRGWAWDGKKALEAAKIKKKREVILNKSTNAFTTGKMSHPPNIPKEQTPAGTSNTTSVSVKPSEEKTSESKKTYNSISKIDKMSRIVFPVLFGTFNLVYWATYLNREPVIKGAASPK
T2 sequence (P18507 40-467 limits assumed): T1 sequence (P18507 40-467 limits assumed)
T2 sequence (P28472 26-473 partner): T1 sequence (P28472 26-473 partner)

GABAA/α1 receptors = biological target: T3, GABAA/α1 receptors (Homo sapiens, UniProt P14867+P18507); conditions: poorer affinity; Huang et al., J. Med. Chem. 2000; cited from earlier work
T3 sequence (P14867 28-456): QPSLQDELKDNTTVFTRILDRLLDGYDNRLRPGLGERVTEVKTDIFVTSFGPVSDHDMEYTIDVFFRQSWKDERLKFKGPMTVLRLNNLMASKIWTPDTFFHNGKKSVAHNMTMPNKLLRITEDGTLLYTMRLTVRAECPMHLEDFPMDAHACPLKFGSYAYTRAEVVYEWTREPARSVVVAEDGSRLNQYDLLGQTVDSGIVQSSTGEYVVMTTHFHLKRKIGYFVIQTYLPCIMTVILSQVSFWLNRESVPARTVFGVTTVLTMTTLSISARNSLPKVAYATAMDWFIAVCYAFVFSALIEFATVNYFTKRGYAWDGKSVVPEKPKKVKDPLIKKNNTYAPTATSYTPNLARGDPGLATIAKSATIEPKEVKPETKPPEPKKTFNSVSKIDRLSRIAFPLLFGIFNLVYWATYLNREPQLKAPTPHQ
T3 sequence (P18507 40-467 limits assumed): T1 sequence (P18507 40-467 limits assumed)
T3 sequence (P28472 26-473 partner): T1 sequence (P28472 26-473 partner)

GABAA/α3 = biological target: T4, GABAA/α3 (Homo sapiens, UniProt P18507+P34903); conditions: intermediate affinity; Huang et al., J. Med. Chem. 2000; cited from earlier work
T4 sequence (P34903 29-492): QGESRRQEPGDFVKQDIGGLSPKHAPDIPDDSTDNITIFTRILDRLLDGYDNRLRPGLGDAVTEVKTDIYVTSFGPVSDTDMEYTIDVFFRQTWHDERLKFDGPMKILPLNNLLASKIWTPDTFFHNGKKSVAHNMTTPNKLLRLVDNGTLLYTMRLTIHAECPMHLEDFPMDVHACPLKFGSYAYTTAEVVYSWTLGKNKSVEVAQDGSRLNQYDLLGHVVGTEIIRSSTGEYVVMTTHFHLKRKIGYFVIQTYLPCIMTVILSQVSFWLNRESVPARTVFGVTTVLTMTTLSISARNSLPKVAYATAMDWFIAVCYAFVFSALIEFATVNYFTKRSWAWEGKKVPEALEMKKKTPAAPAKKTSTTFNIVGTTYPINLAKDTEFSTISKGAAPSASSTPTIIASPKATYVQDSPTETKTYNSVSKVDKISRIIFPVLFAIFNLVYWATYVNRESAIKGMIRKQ
T4 sequence (P18507 40-467 limits assumed): T1 sequence (P18507 40-467 limits assumed)
T4 sequence (P28472 26-473 partner): T1 sequence (P28472 26-473 partner)

rhesus monkeys = test: Conflict procedure (anxiolytic and sedating effects) in rhesus monkeys; format: in vivo; conditions: i.v., cumulative dosing, data for one monkey (FIG. 14)
Text: Other methods for evaluating compounds are known to those skilled in the art. For example, an assessment of anxiolytic effects of compounds can be accomplished objectively and quantitatively with operant-based conflict procedures, as described in Fischer et al. Neuropharmacology 59 (2010) 612-618. Briefly, behavior which is positively reinforced can be suppressed in these procedures by response-contingent administration of a noxious stimulus such as mild electric shock. […] The strength of conflict procedures is their predictive validity with respect to expected therapeutic effects in humans. Results from the Fischer et al. indicate that benzodiazepine-like drugs that have pharmacological activity for α2GABAA and/or α3GABAA receptors and low receptor activity at α 1GABAA and α5GABAA receptors may be useful, particularly as non-sedating anxiolytics. […]
Test sessions were conducted once or twice per week when monkeys reached stable performance, defined as the average rates of responding for component 1 and component 2 not varying by ±20% over five consecutive sessions, with no upward or downward trends. […] The dependent measure was the average rates of responding (responses/s), calculated by dividing responses by time during components 1 and 2, excluding responding during time outs or reinforcer delivery.

Row | Structure (SMILES) | Mean % Remaining vs T = 0 min, Human Liver Microsomes ([1]; 1 μM, 15 min) | Mean % Remaining vs T = 0 min, Human Liver Microsomes ([1]; 1 μM, 30 min) | Mean % Remaining vs T = 0 min, Human Liver Microsomes ([1]; 1 μM, 60 min) | Mean % Remaining vs T = 0 min, Human Liver Microsomes ([1]; 10 μM, 15 min) | Mean % Remaining vs T = 0 min, Human Liver Microsomes ([1]; 10 μM, 30 min) | Mean % Remaining vs T = 0 min, Human Liver Microsomes ([1]; 10 μM, 60 min) | Mean % Remaining vs T = 0 min, with HI (Heat Inactivated) Microsomes ([2]; 1 μM) | Mean % Remaining vs T = 0 min, with HI (Heat Inactivated) Microsomes ([2]; 10 μM) | melting point | Ki (GABAA/α2) | Ki (GABAA/α5 receptors) | Ki (GABAA/α1 receptors) | Ki (GABAA/α3) | anxiolytic effect (suppressed responding) (rhesus monkeys) | sedating effect (non-suppressed responding) (rhesus monkeys)
1 | C#Cc1ccc2c(c1)C(c1ccccc1F)=NCc1c(C(=O)NC)ncn1-2 [HJ-I-037, 8-Ethynyl-N-methyl-6-(2-fluorophenyl)-4H-benzo[f]imidazo[1,5-a][1,4]diazepine-3-carboxamide] | 97.7% | 99.5% | 92.7% | 96.8% | 103% | 103% | 117% | 108% | 235 to 236 °C |  |  |  |  |  | 
2 | C#Cc1ccc2c(c1)C(c1ccccn1)=NCc1c(C(=O)NC)ncn1-2 [HJ-I-40, 8-Ethynyl-N-methyl-6-(pyridine-2-yl)-4H-benzo[f]imidazo[1,5-a][1,4]diazepine-3-carboxamide] | 109% | 126% | 136% | 104% | 106% | 110% | 110% | 110% | 215 to 216 °C |  |  |  |  |  | 
3 | C#Cc1ccc2c(c1)C(c1ccccc1)=NCC(=O)N2C [QH-ii-066] |  |  |  |  |  |  |  |  |  | < 50 nM | < 10 nM | > 70 nM | < 50 nM |  | 
4 | C#Cc1ccc2c(c1)C(c1ccccc1F)=NCc1c(C(=O)OCCCOC(=O)c3ncn4c3CN=C(c3ccccc3F)c3cc(C#C)ccc3-4)ncn1-2 [YT-III-271, Propane-1,3-Diyl-Bis-(8-Ethynyl-6-(2-Fluorophenyl)-4H-Benzo-[1]-Imidazo-[1,5-a]-[1,4]-Diazepine-3-Carboxylate)] | 97.1% | 83.5% |  | 104% | 102% | 91.1% | 117% | 97.0% |  |  |  |  |  | clearly anxiolytic | nonsedating
